Drawing on patent US20110264139A1, “SUTURES AND FIBROSING AGENTS” (Angiotech Pharmaceuticals, Inc., priority 2006, published 2011), this text covers Minimum inhibitory concentration for twelve molecules.

Experiment in all cases: MIC assay, microtitre broth dilution
Holding throughout (assay type): cell-based
In general terms: In broth dilution the organism is exposed to a series of concentrations in liquid medium.

In assay [1] the test system is P. aeruginosa PAE/K799 H187. The note with it: P. aeruginosa PAE/K799 H187 wt, Gram −; Mueller Hinton broth, 37° C., 24 h. How it is done: (§1) MIC assays were conducted essentially as described by Amsterdam, D. 1996, “Susceptibility testing of antimicrobials in liquid media,” p. 52-111. In Loman, V., ed. Antibiotics in Laboratory Medicine, 4th ed. Williams and Wilkins, Baltimore, Md. Briefly, a variety of compounds were tested for antibacterial activity against isolates of P. aeruginosa, K. pneumoniae , E. coli, S. epidermidus, and S. aureus in the MIC (minimum inhibitory concentration) assay under aerobic conditions using 96 well polystyrene microtitre plates (Falcon 1177), and Mueller Hinton broth at 37° C. incubated for 24 h. (MHB was used for most testing except C721 (S. pyogenes), which used Todd Hewitt broth, and Haemophilus influenzae, which used Haemophilus test medium (HTM)). Tests were conducted in triplicate.

Assay [2] relates to S. epidermidis C621. Conditions: S. epidermidis C621 wt, Gram +; Mueller Hinton broth, 37° C., 24 h. How it is done:
as §1

Assay [3] concerns E. Coli UB1005 C498. The note with it: E. Coli UB1005 C498 wt, Gram −; Mueller Hinton broth, 37° C., 24 h. Here is the method:
as §1

Assay [4] concerns K. pneumoniae ATCC13883 C238. Conditions: K. pneumoniae ATCC13883 C238 wt, Gram −; Mueller Hinton broth, 37° C., 24 h. How it is done: as §1
The test system of assay [5] is S. aureus ATCC25923 C622. Conditions: S. aureus ATCC25923 C622 wt, Gram +; Mueller Hinton broth, 37° C., 24 h. Here is the method:
as §1

The test system of assay [6] is S. pyogenes C721. The note with it: S. pyogenes C721 wt, Gram +; Todd Hewitt broth, 37° C., 24 h. How it is done:
as §1

For `Sc1ncnc2nc[nH]c12` [6-mercaptopurine], the Minimum inhibitory concentration result in assay [1], in assay [2], in assay [3], in assay [4], in assay [5] and in assay [6] was “N” in each case.

In the case of `NC(=O)NO` [hydroxyurea], the Minimum inhibitory concentration was 10^−4 molar in assay [1]; “N” in assay [2]; “N” in assay [3]; “N” in assay [4]; “N” in assay [5]; 10^−4 molar in assay [6].

As for `CN(Cc1cnc2nc(N)nc(N)c2n1)c1ccc(C(=O)N[C@@H](CCC(=O)O)C(=O)O)cc1` [methotrexate], the Minimum inhibitory concentration result is given as “N” in assay [1]; “N” in assay [2]; “N” in assay [3]; 10^−6 molar in assay [4]; 10^−5 molar in assay [5]; 10^−6 molar in assay [6].

As for `Nc1ccn([C@@H]2O[C@H](CO)[C@@H](O)[C@@H]2O)c(=O)n1` [Cytarabine], the Minimum inhibitory concentration result in assay [1], in assay [2], in assay [3], in assay [4], in assay [5] and in assay [6] was “N” throughout.

Take `COc1cc([C@@H]2c3cc4c(cc3[C@@H](O[C@@H]3O[C@@H]5CO[C@@H](C)O[C@H]5[C@H](O)[C@H]3O)[C@H]3COC(=O)[C@H]23)OCO4)cc(OC)c1O` [etoposide]: the Minimum inhibitory concentration result in assay [1] was “N”; in assay [2] it was 10^−6 molar; in assay [3], “N”; in assay [4], 10^−5 molar; in assay [5], 10^−5 molar; in assay [6], 10^−5 molar.

Consider `Nc1ncnc2c1ccn2[C@@H]1O[C@H](CO)[C@@H](O)[C@H]1O` [tubercidin], for which the Minimum inhibitory concentration entry in assay [1], in assay [2], in assay [3], in assay [4], in assay [5] and in assay [6] was “N” throughout.

On to `O=c1[nH]cc(F)c(=O)[nH]1` [5-fluorouracil], for which the Minimum inhibitory concentration in assay [1] is listed as 10^−5 molar; in assay [2], 10^−7 molar; in assay [3] it was 10^−6 molar; in assay [4], 10^−6 molar; in assay [5] it was 10^−7 molar; in assay [6], 10^−4 molar.

`Sc1ncc2[nH]cnc2n1` [2-mercaptopurine]: the Minimum inhibitory concentration result in assay [1], in assay [2], in assay [3], in assay [4], in assay [5] and in assay [6] was “N” in each case.

Consider `CC[C@@]1(O)C(=O)OCc2c1cc1n(c2=O)Cc2cc3ccccc3nc2-1` [camptothecin], for which the Minimum inhibitory concentration result in assay [1] is “N”; in assay [2] it was 10^−4 molar; in assay [3], “N”; in assay [4], “N”; in assay [5], “N”; in assay [6], “N”.

As to cisplatin, the Minimum inhibitory concentration in assay [1] is listed as 10^−4 molar; in assay [2] it was “N”; in assay [3], “N”; in assay [4], “N”; in assay [5], “N”; in assay [6], “N”.

Turning to `COc1cccc2c1C(=O)c1c(O)c3c(c(O)c1C2=O)C[C@@](O)(C(=O)CO)C[C@@H]3O[C@H]1C[C@H](N)[C@H](O)[C@H](C)O1` [doxorubicin], the Minimum inhibitory concentration in assay [1] is 10^−5 molar; in assay [2], 10^−6 molar; in assay [3], 10^−4 molar; in assay [4], 10^−6 molar; in assay [5], 10^−5 molar; in assay [6], 10^−7 molar.

As for `O=C1c2c(O)ccc(O)c2C(=O)c2c(NCCNCCO)ccc(NCCNCCO)c21` [mitoxantrone], the Minimum inhibitory concentration in assay [1] was 10^−5 molar; in assay [2], 10^−5 molar; in assay [3], 10^−5 molar; in assay [4], 10^−6 molar; in assay [5] it was 10^−5 molar; in assay [6], 10^−6 molar.
